Patent publication US11498899B2, “Nitrone herbicides” (FMC Corporation, priority 2016, dated 2022)

Columns and labels:
[1] = tested on: barnyardgrass (Echinochloa crus-galli); assay: Test A preemergence, visual injury rating 0-100 (0 no effect, 100 complete control); format: in vivo; conditions: for Barnyardgrass plant response rating (0 to 100 scale): 125 g ai/ha; for Barnyardgrass plant response rating: 500 g ai/ha, 0 to 100 scale
[2] = tested on: foxtail, green (green foxtail, Setaria viridis); assay: Test A preemergence, visual injury rating 0-100; format: in vivo
kochia (Kochia scoparia) [3] = assay: Test A preemergence, visual injury rating 0-100; format: in vivo
[4] = tested on: pigweed (Amaranthus retroflexus); assay: Test A preemergence, visual injury rating 0-100; format: in vivo
[5] = tested on: ragweed (common ragweed, Ambrosia elatior); assay: Test A preemergence, visual injury rating 0-100; format: in vivo
[6] = tested on: ryegrass, Italian (Italian ryegrass, Lolium multiflorum); assay: Test A preemergence, visual injury rating 0-100; format: in vivo
[7] = tested on: barnyardgrass (Echinochloa crus-galli); assay: Test A postemergence, visual injury rating 0-100; format: in vivo; conditions: 0 to 100 scale
[8] = tested on: blackgrass (Alopecurus myosuroides); assay: Test A postemergence, visual injury rating 0-100; format: in vivo; conditions: 0 to 100 scale
corn (Zea mays) = assay: Test A postemergence, visual injury rating 0-100; format: in vivo; conditions: 0 to 100 scale
[9] = tested on: foxtail, green (green foxtail, Setaria viridis); assay: Test A postemergence, visual injury rating 0-100; format: in vivo; conditions: 0 to 100 scale
kochia (Kochia scoparia) [10] = assay: Test A postemergence, visual injury rating 0-100; format: in vivo; conditions: 0 to 100 scale
[11] = tested on: pigweed (Amaranthus retroflexus); assay: Test A postemergence, visual injury rating 0-100; format: in vivo; conditions: 0 to 100 scale
[12] = tested on: ragweed (common ragweed, Ambrosia elatior); assay: Test A postemergence, visual injury rating 0-100; format: in vivo; conditions: 0 to 100 scale
[13] = tested on: ryegrass, Italian (Italian ryegrass, Lolium multiflorum); assay: Test A postemergence, visual injury rating 0-100; format: in vivo; conditions: 0 to 100 scale
[14] = tested on: wheat (Triticum aestivum); assay: Test A postemergence, visual injury rating 0-100; format: in vivo; conditions: 0 to 100 scale
[15] = tested on: ducksalad (Heteranthera limosa); assay: Test B flooded paddy test, visual rating 0-100; conditions: Flood, 250 g ai/ha, applied to paddy water, rated after 13 to 15 days
[16] = tested on: barnyardgrass (Echinochloa crus-galli); assay: Test B flooded paddy test, visual rating 0-100; conditions: Flood, 250 g ai/ha, applied to paddy water, rated after 13 to 15 days
rice (Oryza sativa) = assay: Test B flooded paddy test, visual rating 0-100 (0 no effect, 100 complete control); conditions: Flood, 250 g ai/ha, applied to paddy water, rated after 13 to 15 days

| SMILES | Barnyardgrass plant response rating (0 to 100 scale) [1] | Barnyardgrass plant response rating [1] | Foxtail, Green plant response rating (0 to 100 scale) ([2]; 125 g ai/ha) | Foxtail, Green plant response rating (0 to 100 scale) ([2]; 500 g ai/ha) | Kochia plant response rating (0 to 100 scale) (kochia (Kochia scoparia) [3]; 125 g ai/ha) | Kochia plant response rating (0 to 100 scale) (kochia (Kochia scoparia) [3]; 500 g ai/ha) | Pigweed plant response rating (0 to 100 scale) ([4]; 125 g ai/ha) | Pigweed plant response rating (0 to 100 scale) ([4]; 500 g ai/ha) | Ragweed plant response rating (0 to 100 scale) ([5]; 125 g ai/ha) | Ragweed plant response rating (0 to 100 scale) ([5]; 500 g ai/ha) | Ryegrass, Italian plant response rating (0 to 100 scale) ([6]; 125 g ai/ha) | Ryegrass, Italian plant response rating (0 to 100 scale) ([6]; 500 g ai/ha) | Barnyardgrass plant response rating ([7]; 125 g ai/ha) | Barnyardgrass plant response rating ([7]; 500 g ai/ha) | Blackgrass plant response rating ([8]; 125 g ai/ha) | Blackgrass plant response rating ([8]; 500 g ai/ha) | Corn plant response rating (corn (Zea mays); 125 g ai/ha) | Corn plant response rating (corn (Zea mays); 500 g ai/ha) | Foxtail, Green plant response rating ([9]; 125 g ai/ha) | Foxtail, Green plant response rating ([9]; 500 g ai/ha) | also measured |
| --- | --- | --- | --- | --- | --- | --- | --- | --- | --- | --- | --- | --- | --- | --- | --- | --- | --- | --- | --- | --- | --- |
| CC1=[N+]([O-])C(C(=O)Nc2ccncc2C(F)(F)F)C(c2ccc(C(F)(F)F)cc2)C1 (racemic) [Compound 36] | 70 | 60 | 0 | 100 | 0 | 90 | 0 | 60 | 0 | 80 | 10 | 60 | 0 | 0 | 20 | 20 | 20 | 0 | 0 | 20 | Kochia plant response rating (kochia (Kochia scoparia) [10]; 125 g ai/ha): 0; Kochia plant response rating (kochia (Kochia scoparia) [10]; 500 g ai/ha): 0; Pigweed plant response rating ([11]; 125 g ai/ha): 0; Pigweed plant response rating ([11]; 500 g ai/ha): 0; Ragweed plant response rating ([12]; 125 g ai/ha): 0; Ragweed plant response rating ([12]; 500 g ai/ha): 0; Ryegrass, Italian plant response rating ([13]; 500 g ai/ha): 20; Wheat plant response rating ([14]; 125 g ai/ha): 0; Wheat plant response rating ([14]; 500 g ai/ha): 0; Ducksalad plant response rating (0 to 100 scale) [15]: 0; Barnyardgrass plant response rating (0 to 100 scale) [16]: 30; Rice plant response rating (0 to 100 scale) (rice (Oryza sativa)): 0 |
| CC1=[N+]([O-])C(C(=O)Nc2ccc(F)c(F)c2F)C(c2ccc(C(F)(F)F)cc2)C1 (racemic) [Compound 38] | 90 | 100 | 100 | 100 | 0 | 90 | 30 | 80 | 30 | 90 | 30 | 50 | 90 | 60 | 40 | 70 | 20 | 70 | 70 | 90 | Kochia plant response rating (kochia (Kochia scoparia) [10]; 125 g ai/ha): 0; Kochia plant response rating (kochia (Kochia scoparia) [10]; 500 g ai/ha): 0; Pigweed plant response rating ([11]; 125 g ai/ha): 0; Pigweed plant response rating ([11]; 500 g ai/ha): 30; Ragweed plant response rating ([12]; 125 g ai/ha): 0; Ragweed plant response rating ([12]; 500 g ai/ha): 20; Ryegrass, Italian plant response rating ([13]; 125 g ai/ha): 30; Ryegrass, Italian plant response rating ([13]; 500 g ai/ha): 20; Wheat plant response rating ([14]; 125 g ai/ha): 30; Wheat plant response rating ([14]; 500 g ai/ha): 60; Ducksalad plant response rating (0 to 100 scale) [15]: 65; Barnyardgrass plant response rating (0 to 100 scale) [16]: 60; Rice plant response rating (0 to 100 scale) (rice (Oryza sativa)): 0 |
